Patent US20220119354A1, “DIAMINO-SUBSTITUTED PYRIDINES AND PYRIMIDINES AS HERBICIDES” (FMC Corporation, priority 2019, published 2022)

What was measured:
Assay type in all cases: in vivo
[1] = tested on: wheat (Triticum aestivum); experiment: Test A postemergence, wheat; settings: 0 to 100 scale
Method in brief: (§1)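 Greenhouse pot test, loam/sand soil. Pre: directed soil spray at planting; post: foliar spray at 1–2 leaf stage (2–10 cm). Chemical in non-phytotoxic solvent + surfactant. Visual rating ~10 d, 0 = no effect, 100 = complete control.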

[2] = tested on: ragweed (common ragweed, Ambrosia elatior); experiment: Test A postemergence, ragweed; settings: 0 to 100 scale
Method in brief: as §1

[3] = tested on: foxtail, giant (Setaria faberii); experiment: Test A preemergence, giant foxtail; settings: 0 to 100 scale; for Foxtail, Giant plant response rating: 125 g ai/ha, 0 is no effect, 100 is complete control; for Plant response rating, Foxtail, Giant: 500 g ai/ha
Method in brief: as §1

[4] = tested on: blackgrass (Alopecurus myosuroides); experiment: Test A postemergence, blackgrass; settings: 0 to 100 scale
Method in brief: as §1

[5] = tested on: ryegrass, Italian (Lolium multiflorum); experiment: Test A preemergence, Italian ryegrass; settings: 0 to 100 scale; for Ryegrass, Italian plant response rating: 125 g ai/ha, 0 is no effect, 100 is complete control; for Plant response rating, Ryegrass, Italian: 500 g ai/ha
Method in brief: as §1

kochia (Kochia scoparia) [6] = experiment: Test A postemergence, kochia; settings: 0 to 100 scale
Method in brief: as §1

[7] = tested on: ragweed (common ragweed, Ambrosia elatior); experiment: Test A preemergence, ragweed; settings: 0 to 100 scale; for Ragweed plant response rating: 125 g ai/ha, 0 is no effect, 100 is complete control; for Plant response rating, Ragweed: 500 g ai/ha
Method in brief: as §1

rice (Oryza sativa) = experiment: Test B flooded paddy test, rice; settings: Flood, 250 g ai/ha, applied to paddy water, 2-leaf stage, visual evaluation after 13 to 15 d
Method in brief: (§2)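 Pots flooded to 3 cm above the soil when treated, with test compound added straight to the water and the flood maintained. Treated plants were at the 2-leaf stage and stayed 13–15 d in greenhouse. Response versus untreated controls scored visually from 0 (no effect) to 100 (complete control).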

[8] = tested on: barnyardgrass (Echinochloa crus-galli); experiment: Test A postemergence, barnyardgrass; settings: 0 to 100 scale
Method in brief: as §1

[9] = tested on: barnyardgrass (Echinochloa crus-galli); experiment: Test A preemergence, barnyardgrass; settings: 0 to 100 scale; for Barnyardgrass plant response rating: 125 g ai/ha, 0 is no effect, 100 is complete control; for Plant response rating, Barnyardgrass: 500 g ai/ha
Method in brief: as §1

corn (Zea mays) = experiment: Test A postemergence, corn; settings: 0 to 100 scale
Method in brief: as §1

[10] = tested on: galium (catchweed bedstraw, Galium aparine); experiment: Test A postemergence, galium; settings: 0 to 100 scale
Method in brief: as §1

[11] = tested on: foxtail, giant (Setaria faberii); experiment: Test A postemergence, giant foxtail; settings: 0 to 100 scale
Method in brief: as §1

[12] = tested on: ryegrass, Italian (Lolium multiflorum); experiment: Test A postemergence, Italian ryegrass; settings: 0 to 100 scale
Method in brief: as §1

[13] = tested on: pigweed (Amaranthus retroflexus); experiment: Test A preemergence, pigweed; settings: 0 to 100 scale; for Pigweed plant response rating: 125 g ai/ha, 0 is no effect, 100 is complete control; for Plant response rating, Pigweed: 500 g ai/ha
Method in brief: as §1

kochia (Kochia scoparia) [14] = experiment: Test A preemergence, kochia; settings: 0 to 100 scale; for Kochia plant response rating: 125 g ai/ha, 0 is no effect, 100 is complete control; for Plant response rating, Kochia: 500 g ai/ha
Method in brief: as §1

[15] = tested on: ducksalad (Heteranthera limosa); experiment: Test B flooded paddy test, ducksalad; settings: Flood, 250 g ai/ha, applied to paddy water, 2-leaf stage, visual evaluation after 13 to 15 d
Method in brief: as §2

[16] = tested on: sedge, umbrella (small-flower umbrella sedge, Cyperus difformis); experiment: Test B flooded paddy test, umbrella sedge; settings: Flood, 250 g ai/ha, applied to paddy water, 2-leaf stage, visual evaluation after 13 to 15 d
Method in brief: as §2

[17] = tested on: barnyardgrass (Echinochloa crus-galli); experiment: Test B flooded paddy test, barnyardgrass; settings: Flood, 250 g ai/ha, applied to paddy water, 2-leaf stage, visual evaluation after 13 to 15 d
Method in brief: as §2

[18] = tested on: pigweed (Amaranthus retroflexus); experiment: Test A postemergence, pigweed; settings: 0 to 100 scale
Method in brief: as §1

CC(COc1cccc(C(F)(F)F)c1)Nc1ncc(C(F)(F)F)c(N)n1 (stereo not drawn) [Compound 34]
90: Plant response rating, Foxtail, Giant [3] | Plant response rating, Pigweed [13]
60: Plant response rating, Ryegrass, Italian ([12]; 500 g ai/ha) | Plant response rating, Pigweed ([18]; 500 g ai/ha)
20: Ragweed plant response rating [7] | Plant response rating, Barnyardgrass ([8]; 500 g ai/ha)
10: Plant response rating, Corn (corn (Zea mays); 500 g ai/ha) | Pigweed plant response rating [13]
0: Plant response rating, Wheat ([1]; 125 g ai/ha) | Plant response rating, Wheat ([1]; 500 g ai/ha) | Plant response rating, Ragweed ([2]; 125 g ai/ha) | Plant response rating, Ragweed ([2]; 500 g ai/ha) | Plant response rating, Blackgrass ([4]; 125 g ai/ha) | Ryegrass, Italian plant response rating [5] | Plant response rating, Rice (0 to 100 scale, 0 is no effect, 100 is complete control) (rice (Oryza sativa)) | Plant response rating, Barnyardgrass ([8]; 125 g ai/ha) | Plant response rating, Corn (corn (Zea mays); 125 g ai/ha) | Plant response rating, Foxtail, Giant ([11]; 125 g ai/ha) | Plant response rating, Ryegrass, Italian ([12]; 125 g ai/ha) | Kochia plant response rating (kochia (Kochia scoparia) [14]) | Plant response rating, Ducksalad (0 to 100 scale, 0 is no effect, 100 is complete control) [15] | Plant response rating, Sedge, Umbrella (0 to 100 scale, 0 is no effect, 100 is complete control) [16] | Plant response rating, Barnyardgrass (0 to 100 scale, 0 is no effect, 100 is complete control) [17] | Plant response rating, Pigweed ([18]; 125 g ai/ha)
80: Plant response rating, Ragweed [7] | Barnyardgrass plant response rating [9] | Plant response rating, Kochia (kochia (Kochia scoparia) [14])
70: Plant response rating, Kochia (kochia (Kochia scoparia) [6]; 500 g ai/ha) | Plant response rating, Galium ([10]; 500 g ai/ha)
100: Plant response rating, Barnyardgrass [9]
30: Plant response rating, Blackgrass ([4]; 500 g ai/ha) | Plant response rating, Ryegrass, Italian [5] | Plant response rating, Kochia (kochia (Kochia scoparia) [6]; 125 g ai/ha) | Plant response rating, Galium ([10]; 125 g ai/ha) | Plant response rating, Foxtail, Giant ([11]; 500 g ai/ha)
50: Foxtail, Giant plant response rating [3]

CC(COc1cc(Cl)cc(Cl)c1)Nc1ncc(C(F)(F)F)c(N)n1 (stereo not drawn) [Compound 35]
50: Plant response rating, Pigweed ([18]; 500 g ai/ha)
40: Plant response rating, Ryegrass, Italian ([12]; 125 g ai/ha) | Plant response rating, Kochia (kochia (Kochia scoparia) [14])
60: Plant response rating, Galium ([10]; 500 g ai/ha)
30: Plant response rating, Ryegrass, Italian ([12]; 500 g ai/ha)
0: Plant response rating, Wheat ([1]; 125 g ai/ha) | Plant response rating, Wheat ([1]; 500 g ai/ha) | Plant response rating, Ragweed ([2]; 125 g ai/ha) | Plant response rating, Ragweed ([2]; 500 g ai/ha) | Foxtail, Giant plant response rating [3] | Plant response rating, Foxtail, Giant [3] | Plant response rating, Blackgrass ([4]; 125 g ai/ha) | Plant response rating, Blackgrass ([4]; 500 g ai/ha) | Ryegrass, Italian plant response rating [5] | Plant response rating, Ryegrass, Italian [5] | Plant response rating, Kochia (kochia (Kochia scoparia) [6]; 125 g ai/ha) | Ragweed plant response rating [7] | Plant response rating, Ragweed [7] | Plant response rating, Rice (0 to 100 scale, 0 is no effect, 100 is complete control) (rice (Oryza sativa)) | Plant response rating, Barnyardgrass ([8]; 500 g ai/ha) | Barnyardgrass plant response rating [9] | Plant response rating, Barnyardgrass [9] | Plant response rating, Corn (corn (Zea mays); 125 g ai/ha) | Plant response rating, Corn (corn (Zea mays); 500 g ai/ha) | Plant response rating, Galium ([10]; 125 g ai/ha) | Plant response rating, Foxtail, Giant ([11]; 125 g ai/ha) | Plant response rating, Foxtail, Giant ([11]; 500 g ai/ha) | Pigweed plant response rating [13] | Plant response rating, Pigweed [13] | Kochia plant response rating (kochia (Kochia scoparia) [14]) | Plant response rating, Ducksalad (0 to 100 scale, 0 is no effect, 100 is complete control) [15] | Plant response rating, Sedge, Umbrella (0 to 100 scale, 0 is no effect, 100 is complete control) [16] | Plant response rating, Barnyardgrass (0 to 100 scale, 0 is no effect, 100 is complete control) [17] | Plant response rating, Pigweed ([18]; 125 g ai/ha)
20: Plant response rating, Kochia (kochia (Kochia scoparia) [6]; 500 g ai/ha) | Plant response rating, Barnyardgrass ([8]; 125 g ai/ha)

CC(COc1cc(F)c(F)c(F)c1)Nc1ncc(C(F)(F)F)c(N)n1 (stereo not drawn) [Compound 36]
0: Plant response rating, Wheat ([1]; 125 g ai/ha) | Plant response rating, Wheat ([1]; 500 g ai/ha) | Plant response rating, Ragweed ([2]; 125 g ai/ha) | Plant response rating, Ragweed ([2]; 500 g ai/ha) | Foxtail, Giant plant response rating [3] | Plant response rating, Foxtail, Giant [3] | Plant response rating, Blackgrass ([4]; 125 g ai/ha) | Plant response rating, Blackgrass ([4]; 500 g ai/ha) | Ryegrass, Italian plant response rating [5] | Plant response rating, Ryegrass, Italian [5] | Plant response rating, Kochia (kochia (Kochia scoparia) [6]; 125 g ai/ha) | Plant response rating, Kochia (kochia (Kochia scoparia) [6]; 500 g ai/ha) | Ragweed plant response rating [7] | Plant response rating, Ragweed [7] | Plant response rating, Rice (0 to 100 scale, 0 is no effect, 100 is complete control) (rice (Oryza sativa)) | Plant response rating, Barnyardgrass ([8]; 125 g ai/ha) | Plant response rating, Barnyardgrass ([8]; 500 g ai/ha) | Barnyardgrass plant response rating [9] | Plant response rating, Barnyardgrass [9] | Plant response rating, Corn (corn (Zea mays); 500 g ai/ha) | Plant response rating, Galium ([10]; 125 g ai/ha) | Plant response rating, Galium ([10]; 500 g ai/ha) | Plant response rating, Foxtail, Giant ([11]; 125 g ai/ha) | Plant response rating, Foxtail, Giant ([11]; 500 g ai/ha) | Plant response rating, Ryegrass, Italian ([12]; 125 g ai/ha) | Plant response rating, Ryegrass, Italian ([12]; 500 g ai/ha) | Pigweed plant response rating [13] | Plant response rating, Pigweed [13] | Plant response rating, Ducksalad (0 to 100 scale, 0 is no effect, 100 is complete control) [15] | Plant response rating, Sedge, Umbrella (0 to 100 scale, 0 is no effect, 100 is complete control) [16] | Plant response rating, Barnyardgrass (0 to 100 scale, 0 is no effect, 100 is complete control) [17] | Plant response rating, Pigweed ([18]; 125 g ai/ha) | Plant response rating, Pigweed ([18]; 500 g ai/ha)
30: Plant response rating, Kochia (kochia (Kochia scoparia) [14])
10: Plant response rating, Corn (corn (Zea mays); 125 g ai/ha)
70: Kochia plant response rating (kochia (Kochia scoparia) [14])

CC(COc1cccc(F)c1)Nc1ncc(C(F)(F)F)c(N)n1 (stereo not drawn) [Compound 37]
20: Plant response rating, Galium ([10]; 125 g ai/ha)
0: Plant response rating, Wheat ([1]; 125 g ai/ha) | Plant response rating, Wheat ([1]; 500 g ai/ha) | Plant response rating, Ragweed ([2]; 125 g ai/ha) | Plant response rating, Ragweed ([2]; 500 g ai/ha) | Foxtail, Giant plant response rating [3] | Plant response rating, Foxtail, Giant [3] | Plant response rating, Blackgrass ([4]; 125 g ai/ha) | Plant response rating, Blackgrass ([4]; 500 g ai/ha) | Ryegrass, Italian plant response rating [5] | Plant response rating, Ryegrass, Italian [5] | Plant response rating, Kochia (kochia (Kochia scoparia) [6]; 125 g ai/ha) | Plant response rating, Kochia (kochia (Kochia scoparia) [6]; 500 g ai/ha) | Ragweed plant response rating [7] | Plant response rating, Rice (0 to 100 scale, 0 is no effect, 100 is complete control) (rice (Oryza sativa)) | Plant response rating, Barnyardgrass ([8]; 125 g ai/ha) | Plant response rating, Barnyardgrass ([8]; 500 g ai/ha) | Barnyardgrass plant response rating [9] | Plant response rating, Barnyardgrass [9] | Plant response rating, Corn (corn (Zea mays); 125 g ai/ha) | Plant response rating, Corn (corn (Zea mays); 500 g ai/ha) | Plant response rating, Foxtail, Giant ([11]; 125 g ai/ha) | Plant response rating, Foxtail, Giant ([11]; 500 g ai/ha) | Plant response rating, Ryegrass, Italian ([12]; 125 g ai/ha) | Plant response rating, Ryegrass, Italian ([12]; 500 g ai/ha) | Kochia plant response rating (kochia (Kochia scoparia) [14]) | Plant response rating, Kochia (kochia (Kochia scoparia) [14]) | Plant response rating, Ducksalad (0 to 100 scale, 0 is no effect, 100 is complete control) [15] | Plant response rating, Sedge, Umbrella (0 to 100 scale, 0 is no effect, 100 is complete control) [16] | Plant response rating, Barnyardgrass (0 to 100 scale, 0 is no effect, 100 is complete control) [17] | Plant response rating, Pigweed ([18]; 125 g ai/ha)
70: Plant response rating, Pigweed [13]
40: Plant response rating, Galium ([10]; 500 g ai/ha) | Plant response rating, Pigweed ([18]; 500 g ai/ha)
100: Plant response rating, Ragweed [7]
50: Pigweed plant response rating [13]
